Source: patent publication US4755523A, “Abietamide derivatives” (Nippon Shinyaku Co., Ltd., priority 1986, dated 1988)

Columns and labels:
[1] = system: cholesterol loaded rats (serum total cholesterol); experiment: Effect in cholesterol loaded rats (HCD test), serum total cholesterol increase-inhibiting rate; format: in vivo, Male Wister strain rats; conditions: high-cholesterol food containing 0.03% of test compound, 3 days, serum TC, ** significant at 1% level
Protocol: Test method: Male Wister strain rats of 4 weeks age (six rats per group) were used. They were fed with a high-cholesterol food containing 0.03% of the compound to be tested. After 3 days' feeding, they were fasted overnight, blood was collected therefrom, and the total cholesterol level (TC) in serum was measured. A group fed with a high cholesterol food containing no test compound and groups fed with normal synthetic food were called control group and normal groups, respectively. The serum TC increase-inhibiting rate (%) of the test compound was calculated by the following expression: [formula]

[2] = system: Triton-induced hyperlipemic mice (serum total cholesterol); experiment: Effect in Triton-induced hyperlipemic mice (Triton test), inhibiting rate against serum total cholesterol increase; format: in vivo, Male ICR-strain mice; conditions: Triton WR-1339 500 mg/kg i.v., test compound 300 mg/kg oral, serum TC after 24 hours, ** significant at 1% level
Protocol: Test method: Male ICR-strain mice of 9 weeks age (6 to 9 mice per group) were used. A solution of Triton WR-1339 in physiological saline solution was injected from tail vein at the dose of 500 mg/kg whereupon hyperlipemia was induced. Physiological saline solution was injected to normal group intravenously. Immediately thereafter, 300 mg/kg of the test compound suspended in 0.5% methylcellulose (MC) was given orally. The group given with 0.5% MC solution was called a control group. After fasting for 24 hours, head was cut, blood was taken, and the TC value of the resulting serum was measured. The inhibiting rate (%) against serum TC increase of the test compound was calculated by the following expression: [formula]

[3] = system: absorption of extrinsic cholesterol from the intestinal tract; conditions: Japanese Laid Open Application Sho-51/026864; cited from earlier work
[4] = system: biosynthesis of cholesterol; conditions: Japanese Laid Open Application Sho-51/026864; cited from earlier work

Compound | Inhibitory Rate for Cholesterol Increase (HCD Test) [1] | Inhibitory Rate for Cholesterol Increase (Triton Test) [2] | inhibition of absorption of extrinsic cholesterol from the intestinal tract [3] | inhibition of the biosynthesis of cholesterol [4]
CC(C)C1CCC2=C(CCC3C(C)(C(=O)Nc4ccnn4-c4ccccc4)CCCC23C)C1 (stereo not shown) [Example 1, N-(1-phenylpyrazol-5-yl)-Δ^8-dihydroabietamide] | 115% | 32% | – | –
CC(C)C1CCC2=C(CCC3C(C)(C(=O)Nc4nccs4)CCCC23C)C1 (stereo not shown) [Example 3, N-(Thiazol-2-yl)-Δ^8-dihydroabietamide] | 47% | 75% | – | –
Cc1csc(NC(=O)C2(C)CCCC3(C)C4=C(CCC23)CC(C(C)C)CC4)n1 (stereo not shown) [Example 4, N-(4-Methylthiazol-2-yl)-Δ^8-dihydroabietamide] | 102% | 68% | – | –
Cc1cccc(C)c1NC(=O)C1(C)CCCC2(C)C3=C(CCC12)CC(C(C)C)CC3 (stereo not shown) [N--(2,6-Dimethylphenyl)-Δ^8-dihydroabietamide, reference compound] | 100% | -8% | inhibit absorption of extrinsic cholesterol from the intestinal tract | do not inhibit the biosynthesis of cholesterol
